Patent publication US11053204B2, “Pyrimidinyloxy benzene derivatives as herbicides” (FMC Corporation, priority 2015, dated 2021)

Columns and labels:
Type in all cases: in vivo
corn (Zea mays) = assay: Test C preemergence, plant response rating; details: Preemergence
Text: (§1) Seeds of plant species selected from blackgrass (Alopecurus myosuroides), ryegrass, Italian (Italian ryegrass, Lolium multiflorum), wheat (winter wheat, Triticum aestivum), galium (catchweed bedstraw, Galium aparine), corn (Zea mays), crabgrass, large (large crabgrass, Digitaria sanguinalis), foxtail, giant (giant foxtail, Setaria faberii), johnsongrass (Sorghum halepense), lambsquarters (Chenopodium album), morningglory (Ipomoea coccinea), nutsedge, yellow (yellow nutsedge, Cyperus esculentus), pigweed (Amaranthus retroflexus), ragweed (common ragweed, Ambrosia elatior), soybean (Glycine max), barnyardgrass (Echinochloa crus-galli), oilseed rape (Brassica napus), pigweed, palmer (palmer pigweed, Amaranthus palmeri), waterhemp (common waterhemp, Amaranthus rudis), velvetleaf (Abutilon theophrasti), kochia (Kochia scoparia), surinam grass (Brachiaria decumbens), nightshade (eastern black nightshade, Solanum ptycanthum), wild poinsettia (Euphorbia heterophylla), windgrass (Apera spica-venti), and oat, wild (wild oat Avena fatua), were planted into a blend of loam soil and sand or a silt loam soil and treated preemergence with test chemicals formulated in a non-phytotoxic solvent mixture which included a surfactant.
(§2) At the same time, plants selected from these crop and weed species and also chickweed (common chickweed, Stellaria media), buckwheat, wild (wild buckwheat, Polygonum convolvulus), wild mustard (Sinapis arvensis), field poppy (Papaver rhoeas), field violet (Viola arvensis), geranium, cutleaf (cutleaf geranium, Geranium dissectum), Canada thistle (Cirsium arvense), and speedwell (bird's-eye speedwell, Veronica persica), were planted in pots containing Sunshine Redi-Earth® planting medium comprising spaghnum peat moss, vermiculite, starter nutrients and dolomitic limestone and treated with postemergence applications of test chemicals formulated in the same manner. Plants ranged in height from 2 to 18 cm (1- to 4-leaf stage) for postemergence treatments. Treated plants and controls were maintained in a greenhouse for 13 to 15 d, after which time all species were compared to controls and visually evaluated. Plant response ratings, summarized in Table C, are based on a scale of 0 to 100 where 0 is no effect and 100 is complete control. A dash (-) response means no test result.

[1] = test system: foxtail, giant (giant foxtail, Setaria faberii); assay: Test C preemergence, plant response rating; details: Preemergence
Text: as §1, §2

[2] = test system: ryegrass, Italian (Italian ryegrass, Lolium multiflorum); assay: Test C preemergence, plant response rating; details: Preemergence
Text: as §1, §2

soybean (Glycine max) = assay: Test C preemergence, plant response rating; details: Preemergence
Text: as §1, §2

[3] = test system: blackgrass (Alopecurus myosuroides); assay: Test C preemergence, plant response rating; details: Preemergence
Text: as §1, §2

[4] = test system: ragweed (common ragweed, Ambrosia elatior); assay: Test C preemergence, plant response rating; details: Preemergence
Text: as §1, §2

[5] = test system: crabgrass, large (large crabgrass, Digitaria sanguinalis); assay: Test C preemergence, plant response rating; details: Preemergence
Text: as §1, §2

[6] = test system: oilseed rape (Brassica napus); assay: Test C preemergence, plant response rating; details: Preemergence
Text: as §1, §2

[7] = test system: barnyardgrass (Echinochloa crus-galli); assay: Test A preemergence, visual injury rating; details: 0 to 100 scale (0 no effect, 100 complete control)
How it was run: (§3)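 Compounds in non-phytotoxic solvent with surfactant applied as soil spray preemergence, or postemergence to plants 2-10 cm at one- to two-leaf stage, in loam/sand. After approximately 10 days in greenhouse, injury rated visually versus untreated controls, 0 (no effect) to 100 (complete control).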

[8] = test system: giant foxtail (Setaria faberii); assay: Test A preemergence, visual injury rating; details: 0 to 100 scale (0 no effect, 100 complete control)
How it was run: as §3

[9] = test system: pigweed (Amaranthus retroflexus); assay: Test A preemergence, visual injury rating; details: 0 to 100 scale (0 no effect, 100 complete control)
How it was run: as §3

kochia (Kochia scoparia) = assay: Test A preemergence, visual injury rating; details: 0 to 100 scale (0 no effect, 100 complete control)
How it was run: as §3

[10] = test system: ragweed (common ragweed, Ambrosia elatior); assay: Test A preemergence, visual injury rating; details: 0 to 100 scale (0 no effect, 100 complete control)
How it was run: as §3

[11] = test system: Italian ryegrass (Lolium multiflorum); assay: Test A preemergence, visual injury rating; details: 0 to 100 scale (0 no effect, 100 complete control)
How it was run: as §3

CC(CC(F)(F)F)OC(=O)c1c(Br)cccc1Oc1ncc(Cl)cn1 (stereo not shown) [Compound 16, 3,3,3-trifluoro-1-methylpropyl 2-bromo-6-[(5-chloro-2-pyrimidinyl)oxy]benzoate]
Corn plant response rating (crop injury, 0 = no effect, 100 = complete kill) at 62 g/ha (corn (Zea mays); Zea mays, pre-emergence, 62 g ai/ha, scale of 0 to 100): 0%
Corn plant response rating (crop injury, 0 = no effect, 100 = complete kill) at 125 g/ha (corn (Zea mays); Zea mays, pre-emergence, 125 g ai/ha, scale of 0 to 100): 10%
Corn plant response rating (crop injury, 0 = no effect, 100 = complete kill) at 16 g/ha (corn (Zea mays); Zea mays, pre-emergence, 16 g ai/ha, scale 0 to 100): 0%
Corn plant response rating (crop injury, 0 = no effect, 100 = complete kill) at 31 g/ha (corn (Zea mays); Zea mays, pre-emergence, 31 g ai/ha, scale 0 to 100): 0%
pest or weed control at 62 g/ha ([1]; Setaria faberi, pre-emergence, 62 g ai/ha, scale of 0 to 100): 90%
pest or weed control at 125 g/ha ([1]; Setaria faberi, pre-emergence, 125 g ai/ha, scale of 0 to 100): 100%
pest or weed control at 16 g/ha ([1]; Setaria faberi, pre-emergence, 16 g ai/ha, scale 0 to 100): 5%
pest or weed control at 31 g/ha ([1]; Setaria faberi, pre-emergence, 31 g ai/ha, scale 0 to 100): 25%
pest or weed control at 125 g/ha ([2]; Lolium multiflorum, pre-emergence, 125 g ai/ha, scale of 0 to 100): 5%
pest or weed control at 16 g/ha ([2]; Lolium multiflorum, pre-emergence, 16 g ai/ha, scale 0 to 100): 0%
pest or weed control at 31 g/ha ([2]; Lolium multiflorum, pre-emergence, 31 g ai/ha, scale 0 to 100): 0%
pest or weed control at 62 g/ha ([2]; Lolium multiflorum, pre-emergence, 62 g ai/ha, scale 0 to 100): 5%
plant injury at 125 g/ha (soybean (Glycine max); Glycine max, pre-emergence, 125 g ai/ha, scale of 0 to 100): 5%
plant injury at 16 g/ha (soybean (Glycine max); Glycine max, pre-emergence, 16 g ai/ha, scale 0 to 100): 0%
plant injury at 31 g/ha (soybean (Glycine max); Glycine max, pre-emergence, 31 g ai/ha, scale 0 to 100): 0%
plant injury at 62 g/ha (soybean (Glycine max); Glycine max, pre-emergence, 62 g ai/ha, scale 0 to 100): 0%
pest or weed control at 62 g/ha ([3]; Alopecurus myosuroides, pre-emergence, 62 g ai/ha, scale of 0 to 100): 5%
pest or weed control at 125 g/ha ([3]; Alopecurus myosuroides, pre-emergence, 125 g ai/ha, scale of 0 to 100): 10%
pest or weed control at 16 g/ha ([3]; Alopecurus myosuroides, pre-emergence, 16 g ai/ha, scale 0 to 100): 0%
pest or weed control at 31 g/ha ([3]; Alopecurus myosuroides, pre-emergence, 31 g ai/ha, scale 0 to 100): 0%
pest or weed control at 125 g/ha ([4]; Ambrosia artemisiifolia, pre-emergence, 125 g ai/ha, scale of 0 to 100): 0%
pest or weed control at 16 g/ha ([4]; Ambrosia artemisiifolia, pre-emergence, 16 g ai/ha, scale 0 to 100): 0%
pest or weed control at 31 g/ha ([4]; Ambrosia artemisiifolia, pre-emergence, 31 g ai/ha, scale 0 to 100): 0%
pest or weed control at 62 g/ha ([4]; Ambrosia artemisiifolia, pre-emergence, 62 g ai/ha, scale 0 to 100): 5%
pest or weed control at 62 g/ha ([5]; Digitaria sanguinalis, pre-emergence, 62 g ai/ha, scale of 0 to 100): 90%
pest or weed control at 125 g/ha ([5]; Digitaria sanguinalis, pre-emergence, 125 g ai/ha, scale of 0 to 100): 100%
pest or weed control at 16 g/ha ([5]; Digitaria sanguinalis, pre-emergence, 16 g ai/ha, scale 0 to 100): 5%
pest or weed control at 31 g/ha ([5]; Digitaria sanguinalis, pre-emergence, 31 g ai/ha, scale 0 to 100): 75%
plant injury at 125 g/ha ([6]; Brassica napus, pre-emergence, 125 g ai/ha, scale of 0 to 100): 100%
plant injury at 16 g/ha ([6]; Brassica napus, pre-emergence, 16 g ai/ha, scale 0 to 100): 0%
plant injury at 31 g/ha ([6]; Brassica napus, pre-emergence, 31 g ai/ha, scale 0 to 100): 50%
plant injury at 62 g/ha ([6]; Brassica napus, pre-emergence, 62 g ai/ha, scale 0 to 100): 60%
pest or weed control at 125 g/ha ([7]; Echinochloa crus-galli, pre-emergence, 240 h, 125 g ai/ha, read-out: Barnyardgrass plant response rating): 30%
pest or weed control at 500 g/ha ([7]; Echinochloa crus-galli, pre-emergence, 240 h, 500 g ai/ha, read-out: Barnyardgrass plant response rating): 100%
pest or weed control at 125 g/ha ([8]; Setaria faberi, pre-emergence, 240 h, 125 g ai/ha, read-out: Foxtail, Giant plant response rating): 90%
pest or weed control at 500 g/ha ([8]; Setaria faberi, pre-emergence, 240 h, 500 g ai/ha, read-out: Foxtail, Giant plant response rating): 100%
pest or weed control at 125 g/ha ([9]; Amaranthus retroflexus, pre-emergence, 240 h, 125 g ai/ha, read-out: Pigweed plant response rating): 90%
pest or weed control at 500 g/ha ([9]; Amaranthus retroflexus, pre-emergence, 240 h, 500 g ai/ha, read-out: Pigweed plant response rating): 100%
pest or weed control at 125 g/ha (kochia (Kochia scoparia); Bassia scoparia, pre-emergence, 240 h, 125 g ai/ha, read-out: Kochia plant response rating): 90%
pest or weed control at 500 g/ha (kochia (Kochia scoparia); Bassia scoparia, pre-emergence, 240 h, 500 g ai/ha, read-out: Kochia plant response rating): 80%
pest or weed control at 125 g/ha ([10]; Ambrosia artemisiifolia, pre-emergence, 240 h, 125 g ai/ha, read-out: Ragweed plant response rating): 0%
pest or weed control at 500 g/ha ([10]; Ambrosia artemisiifolia, pre-emergence, 240 h, 500 g ai/ha, read-out: Ragweed plant response rating): 0%
pest or weed control at 125 g/ha ([11]; Lolium multiflorum, pre-emergence, 240 h, 125 g ai/ha, read-out: Ryegrass, Italian plant response rating): 0%
pest or weed control at 500 g/ha ([11]; Lolium multiflorum, pre-emergence, 240 h, 500 g ai/ha, read-out: Ryegrass, Italian plant response rating): 20%

N#Cc1cccc(Oc2ncc(Cl)cn2)c1CCCC(F)(F)F [Compound 72]
Plant response rating, Corn (corn (Zea mays); 62 g ai/ha, scale of 0 to 100): 20
Plant response rating, Corn (corn (Zea mays); 125 g ai/ha, scale of 0 to 100): 60
Plant response rating, Corn (corn (Zea mays); 16 g ai/ha, scale 0 to 100): 5
Plant response rating, Corn (corn (Zea mays); 31 g ai/ha, scale 0 to 100): 20
Plant response rating, Foxtail, Giant ([1]; 62 g ai/ha, scale of 0 to 100): 75
Plant response rating, Foxtail, Giant ([1]; 125 g ai/ha, scale of 0 to 100): 100
Plant response rating, Foxtail, Giant ([1]; 16 g ai/ha, scale 0 to 100): 55
Plant response rating, Foxtail, Giant ([1]; 31 g ai/ha, scale 0 to 100): 80
Plant response rating, Ryegrass, Italian ([2]; 125 g ai/ha, scale of 0 to 100): 100
Plant response rating, Ryegrass, Italian ([2]; 16 g ai/ha, scale 0 to 100): 10
Plant response rating, Ryegrass, Italian ([2]; 31 g ai/ha, scale 0 to 100): 45
Plant response rating, Ryegrass, Italian ([2]; 62 g ai/ha, scale 0 to 100): 45
Plant response rating, Soybean (soybean (Glycine max); 125 g ai/ha, scale of 0 to 100): 90
Plant response rating, Soybean (soybean (Glycine max); 16 g ai/ha, scale 0 to 100): 0
Plant response rating, Soybean (soybean (Glycine max); 31 g ai/ha, scale 0 to 100): 0
Plant response rating, Soybean (soybean (Glycine max); 62 g ai/ha, scale 0 to 100): 15
Plant response rating, Blackgrass ([3]; 62 g ai/ha, scale of 0 to 100): 98
Plant response rating, Blackgrass ([3]; 125 g ai/ha, scale of 0 to 100): 100
Plant response rating, Blackgrass ([3]; 16 g ai/ha, scale 0 to 100): 60
Plant response rating, Blackgrass ([3]; 31 g ai/ha, scale 0 to 100): 98
Plant response rating, Ragweed ([4]; 125 g ai/ha, scale of 0 to 100): 45
Plant response rating, Ragweed ([4]; 16 g ai/ha, scale 0 to 100): 0
Plant response rating, Ragweed ([4]; 31 g ai/ha, scale 0 to 100): 0
Plant response rating, Ragweed ([4]; 62 g ai/ha, scale 0 to 100): 40
Plant response rating, Crabgrass, Large ([5]; 62 g ai/ha, scale of 0 to 100): 100
Plant response rating, Crabgrass, Large ([5]; 125 g ai/ha, scale of 0 to 100): 100
Plant response rating, Crabgrass, Large ([5]; 16 g ai/ha, scale 0 to 100): 100
Plant response rating, Crabgrass, Large ([5]; 31 g ai/ha, scale 0 to 100): 100
Plant response rating, Oilseed Rape ([6]; 125 g ai/ha, scale of 0 to 100): 100
Plant response rating, Oilseed Rape ([6]; 16 g ai/ha, scale 0 to 100): 5
Plant response rating, Oilseed Rape ([6]; 31 g ai/ha, scale 0 to 100): 80
Plant response rating, Oilseed Rape ([6]; 62 g ai/ha, scale 0 to 100): 80
Barnyardgrass plant response rating ([7]; 125 g ai/ha): 90
Barnyardgrass plant response rating ([7]; 500 g ai/ha): 100
Foxtail, Giant plant response rating ([8]; 125 g ai/ha): 90
Foxtail, Giant plant response rating ([8]; 500 g ai/ha): 100
Pigweed plant response rating ([9]; 125 g ai/ha): 100
Pigweed plant response rating ([9]; 500 g ai/ha): 100
Kochia plant response rating (kochia (Kochia scoparia); 125 g ai/ha): 90
Kochia plant response rating (kochia (Kochia scoparia); 500 g ai/ha): 100
Ragweed plant response rating ([10]; 125 g ai/ha): 0
Ragweed plant response rating ([10]; 500 g ai/ha): 10
Ryegrass, Italian plant response rating ([11]; 125 g ai/ha): 10
Ryegrass, Italian plant response rating ([11]; 500 g ai/ha): 30
